As a reminder, the Ki is the equilibrium dissociation constant of an inhibitor or competing ligand from its target.

Experiment [1] has as its target T1, hEP4 (Homo sapiens, UniProt P35408).
T1 construct: expressed in transfected cells; host or cells: HEK-293 cells (plasma membrane fraction)
Put plainly: Radioligand binding, [3H]PGE2, HEK-293 cells stably expressing EP4 receptors. As for the experimental part: (§1) HEK-293 cells stably expressing the human or feline FP receptor, or EP1, EP2, or EP4 receptors were washed with TME buffer, scraped from the bottom of the flasks, and homogenized for 30 sec using a Brinkman PT 10/35 polytron. TME buffer was added to achieve a final 40 ml volume in the centrifuge tubes (the composition of TME is 100 mM TRIS base, 20 mM MgCl2, […]; 10N HCl is added to achieve a pH of 7.4).
(§2) The cell homogenate was centrifuged at 19000 r.p.m. for 20 min at 4° C. using a Beckman Ti-60 rotor. The resultant pellet was resuspended in TME buffer to give a final 1 mg/ml protein concentration, as determined by Biorad assay. Radioligand binding competition assays vs. [^3H—]17 phenyl PGF2. (5 nM) were performed in a 100 μl volume for 60 min. Binding reactions were started by adding plasma membrane fraction. The reaction was terminated by the addition of 4 ml ice-cold TRIS-HCl buffer and rapid filtration through glass fiber GF/B filters using a Brandel cell harvester. The filters were washed 3 times with ice-cold buffer and oven dried for one hour.
[^3H—] PGE2 (specific activity 180 Ci mmol) was used as the radioligand for EP receptors. [^3H] 17-phenyl PGF2α was employed for FP receptor binding studies. […] A 200 μl assay volume was used. Incubations were for 60 min at 25° C. and were terminated by the addition of 4 ml of ice-cold 50 mM TRIS-HCl, followed by rapid filtration through Whatman GF/B filters and three additional 4 ml washes in a cell harvester (Brandel). Competition studies were performed using a final concentration of 5 nM [^3H]-PGE2, or 5 nM [^3H] 17-phenyl PGF2α and non-specific binding determined with 10^−5M of unlabeled PGE2, or 17-phenyl PGF2α, according to receptor subtype studied.

In experiment [2] the target is hEP2 (Homo sapiens, UniProt P43116). Put plainly: Competition binding, [3H]PGE2, HEK 293 cells stably expressing human EP2 receptors. Also noted: expressed in transfected cells; host or cells: HEK 293 cells (membranes or whole cells). As for the experimental part: Competition binding experiments were performed in a medium containing Hank's balanced salt solution, Hepes 20 mM, pH 7.3, membranes (˜60 μg protein) or 2×10^5 cells from HEK 293 cells stably expressing human EP2 receptors, [^3H]PGE2 (10 nM) and various concentrations of test compounds in a total volume of 300 μL. Reaction mixtures were incubated at 23° C. for 60 min, and were filtered over Whatman GF/B filters under vacuum. Filters were washed three times with 5 ml ice-cold buffer containing 50 mM Tris/HCl (pH 7.3). Non-specific binding was estimated in the presence of excess unlabeled PGE2 (10 μM). Binding data fitted to the binding model for a single class of binding sites, using nonlinear regression analysis. IC50 values thus obtained were converted to Ki using the equation of Ki=(IC50/(1+[L]/KD) where [L] represents PGE2 concentration (10 nM) and KD the dissociation constant for [^3H]PGE2 at human EP2 receptors (40 nM).
Chain of hEP2 (P43116 whole entry): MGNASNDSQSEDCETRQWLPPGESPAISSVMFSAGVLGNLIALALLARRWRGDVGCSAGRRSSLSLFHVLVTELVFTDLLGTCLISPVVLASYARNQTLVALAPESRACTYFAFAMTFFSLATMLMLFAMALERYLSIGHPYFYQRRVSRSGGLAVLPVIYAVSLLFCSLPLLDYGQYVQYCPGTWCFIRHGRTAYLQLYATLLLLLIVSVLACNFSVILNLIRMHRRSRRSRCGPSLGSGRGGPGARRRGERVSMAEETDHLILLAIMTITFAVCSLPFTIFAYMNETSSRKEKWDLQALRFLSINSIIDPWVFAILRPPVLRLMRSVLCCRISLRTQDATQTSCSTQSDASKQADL
as §1, §2
[^3H—] PGE2 (specific activity 180 Ci mmol) was used as the radioligand for EP receptors. [^3H] 17-phenyl PGF2α was employed for FP receptor binding studies. Binding studies employing EP1, EP2, EP4 and FP receptors were performed in duplicate in at least three separate experiments. A 200 μl assay volume was used. Incubations were for 60 min at 25° C. and were terminated by the addition of 4 ml of ice-cold 50 mM TRIS-HCl, followed by rapid filtration through Whatman GF/B filters and three additional 4 ml washes in a cell harvester (Brandel). Competition studies were performed using a final concentration of 5 nM [^3H]-PGE2, or 5 nM [^3H] 17-phenyl PGF2α and non-specific binding determined with 10^−5M of unlabeled PGE2, or 17-phenyl PGF2α, according to receptor subtype studied.

Where [3] appears, read: Table 1, first part, triplicate, read-out: binding data (Ki) hEP4.
The mark [4] stands for this setting: Table 1, second part, read-out: hEP4 Ki.
Where [5] appears, read: Table 1, first part, triplicate, read-out: binding data (Ki) hEP2.
Where [6] appears, read: Table 1, second part, read-out: hEP2 Ki.

Read-outs that look alike come from different tables or passages of the source. Some results are limits rather than exact numbers.

T1 sequence (P35408 whole entry): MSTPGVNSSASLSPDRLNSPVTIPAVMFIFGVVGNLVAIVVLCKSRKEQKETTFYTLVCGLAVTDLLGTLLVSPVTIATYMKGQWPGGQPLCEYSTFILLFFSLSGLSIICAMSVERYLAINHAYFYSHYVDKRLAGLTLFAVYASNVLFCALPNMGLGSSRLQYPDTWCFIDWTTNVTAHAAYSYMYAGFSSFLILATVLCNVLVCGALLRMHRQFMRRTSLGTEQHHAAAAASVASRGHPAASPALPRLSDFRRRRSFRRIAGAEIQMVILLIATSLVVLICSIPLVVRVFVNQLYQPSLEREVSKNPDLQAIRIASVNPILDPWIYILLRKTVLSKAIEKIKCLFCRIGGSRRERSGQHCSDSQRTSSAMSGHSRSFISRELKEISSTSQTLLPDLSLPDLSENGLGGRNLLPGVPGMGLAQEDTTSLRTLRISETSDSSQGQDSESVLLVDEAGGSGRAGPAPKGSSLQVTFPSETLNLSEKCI

Consider `O=C(O)CCCCCC[C@@H]1[C@@H](COc2ccccc2)[C@H](O)C[C@H]1Cl` [Example 10, 7-((1R,2S,3R,5R)-5-Chloro-3-hydroxy-2-phenoxymethyl-cyclopentyl)-heptanoic acid], for which the Ki in experiment [1] (setting [3]) was over 10 µM; in experiment [1] (setting [4]), over 10 µM; in experiment [2] (setting [5]) it was 1.7 µM.
As for `O=C(O)CCC/C=C\C[C@@H]1[C@@H](COc2ccccc2)[C@H](O)C[C@H]1Cl` [Example 8, (Z)-7-((1R,2S,3R,5R)-5-Chloro-3-hydroxy-2-phenoxymethyl-cyclopentyl)-hept-5-enoic acid], the Ki in experiment [1] (setting [3]) is over 10 µM; in experiment [1] (setting [4]), over 10 µM; in experiment [2] (setting [5]), 1.26 µM.
On to “(Z)-7-((1R,5S)-2-Oxo-5-phenoxymethyl-cyclopent-3-enyl)-hept-5-enoic acid [Example 3]”, for which the Ki in experiment [1] (setting [3]) was over 10 µM; in experiment [1] (setting [4]), over 10 µM; in experiment [2] (setting [5]) it was over 10 µM; in experiment [2] (setting [6]) it was 13.4 µM.
With “(Z)-7-((1R,2S,3R)-3-Hydroxy-5-oxo-2-phenoxymethyl-cyclopentyl)-hept-5-enoic acid [Example 4]”, the Ki in experiment [1] (setting [3]) is over 10 µM; in experiment [1] (setting [4]), over 10 µM; in experiment [2] (setting [5]), 13.4 µM; in experiment [2] (setting [6]), over 10 µM.
With `O=C(O)CCCCCC[C@H]1C(=O)CC[C@@H]1COc1ccccc1` [Example 6, 7-((1R,5S)-2-Oxo-5-phenoxymethyl-cyclopentyl)-heptanoic acid], the Ki in experiment [1] (setting [3]) was 2.65 µM; in experiment [2] (setting [5]), 6.25 µM.
As to `O=C(O)CCC/C=C\C[C@@H]1[C@@H](COc2cc(Cl)cc(Cl)c2)[C@H](O)C[C@H]1Cl` [Example 12, (Z)-7-[(1R,2S,3R,5R)-5-Chloro-2-(3,5-dichloro-phenoxymethyl)-3-hydroxy-cyclopentyl]-hept-5-enoic acid], the Ki in experiment [1] (setting [3]) was 0.94 µM; in experiment [1] (setting [4]), 0.94 µM; in experiment [2] (setting [5]), 0.012 µM; in experiment [2] (setting [6]) it was 0.012 µM.
`O=C(O)CCCCCC[C@@H]1[C@@H](COc2cc(Cl)cc(Cl)c2)[C@H](O)C[C@H]1Cl` [Example 14, 7-[(1R,2S,3R,5R)-5-Chloro-2-(3,5-dichloro-phenoxymethyl)-3-hydroxy-cyclopentyl]-heptanoic acid]: the Ki in experiment [1] (setting [3]) was found to be 3.04 µM; in experiment [2] (setting [5]), 0.076 µM.

The values are drawn from patent US7635716B2, “Substituted cyclopentanes or cyclopentanones as therapeutic agents” (Allergan, Inc., priority 2005, dated 2009).
